US5166213A, “4-pyridyl substituted-1,3-dioxane compounds” (Imperial Chemical Industries PLC, priority 1988, dated 1992)

Tests used:
thromboxane receptor = molecular target: T1, thromboxane receptor (Homo sapiens, UniProt P21731); test: test (b): blood platelet aggregation, antagonism of U46619 in citrated platelet-rich plasma; format: cell-based; settings: Example 2, unit inferred
T1 construct: aggregating human, citrated, platelet-rich plasma; from tissue; host or cells: human platelets (citrated platelet-rich plasma)
T1 sequence (P21731 1-343): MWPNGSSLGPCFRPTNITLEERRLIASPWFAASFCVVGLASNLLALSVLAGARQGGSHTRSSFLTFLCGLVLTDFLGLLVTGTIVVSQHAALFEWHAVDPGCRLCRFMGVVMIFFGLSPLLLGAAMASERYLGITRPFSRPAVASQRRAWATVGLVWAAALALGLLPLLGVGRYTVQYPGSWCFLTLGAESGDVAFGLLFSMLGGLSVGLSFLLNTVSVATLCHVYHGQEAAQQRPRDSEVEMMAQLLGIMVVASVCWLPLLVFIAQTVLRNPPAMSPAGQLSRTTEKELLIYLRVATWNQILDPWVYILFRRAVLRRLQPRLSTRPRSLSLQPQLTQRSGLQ
From the text: (b) a blood platelet aggregation test based on that described by Born (Nature, 1962, 194, 927-929) and involving:
(i) aggregating human, citrated, platelet-rich plasma by addition of the TXA2 mimetic agent U46619 so that a dose-response curve is generated;
(ii) generating a dose-response curve for U46619 stimulated platelet aggregation in the presence of increasing amounts of test compound (generally in the range 10^-5 M to 10^-10 M); and
(iii) calculating a KB value indicating potency of TXA2 antagonism for the test compound, averaged over several concentrations, from the calculated 50% response value for U46619 aggregation in the presence and absence of test compound; or […]

TXA2 synthase [1] = test: test (f): TXB2 production in blood samples from dosed rats; format: in vivo, rat; settings: oral dose of 25 mg/kg, up to 5 hours
Protocol: The samples treated with anti-coagulant are first incubated at 37° C. with collagen (at about 100 micro M), then mixed with the cyclooxygenase inhibitor indomethacin (at about 10^-3 M), centrifuged and the level of the TXA2 metabolite, TXB2, determined by a standard radioimmunoassay technique. By comparison of the amount of TXB2 present in the plasma from animals dosed with test compound with that in the plasma of a control group dosed with placebo, the TXA2 synthase inhibitory properties may be assessed.

[2] = observable signs of toxicity in test (f), rats; format: in vivo, rat; settings: oral dose of 25 mg/kg
TXA2 synthase [3] = molecular target: T2, TXA2 synthase (Homo sapiens, UniProt P24557); test: test (e): in vitro inhibition of human platelet microsomal TXA2 synthase (conversion of [1-^14 C]arachidonic acid to TXB2); format: biochemical
T2 construct: using a human platelet microsomal TXA2 synthase preparation; from tissue; host or cells: human platelet microsomes
T2 sequence (P24557 1-533): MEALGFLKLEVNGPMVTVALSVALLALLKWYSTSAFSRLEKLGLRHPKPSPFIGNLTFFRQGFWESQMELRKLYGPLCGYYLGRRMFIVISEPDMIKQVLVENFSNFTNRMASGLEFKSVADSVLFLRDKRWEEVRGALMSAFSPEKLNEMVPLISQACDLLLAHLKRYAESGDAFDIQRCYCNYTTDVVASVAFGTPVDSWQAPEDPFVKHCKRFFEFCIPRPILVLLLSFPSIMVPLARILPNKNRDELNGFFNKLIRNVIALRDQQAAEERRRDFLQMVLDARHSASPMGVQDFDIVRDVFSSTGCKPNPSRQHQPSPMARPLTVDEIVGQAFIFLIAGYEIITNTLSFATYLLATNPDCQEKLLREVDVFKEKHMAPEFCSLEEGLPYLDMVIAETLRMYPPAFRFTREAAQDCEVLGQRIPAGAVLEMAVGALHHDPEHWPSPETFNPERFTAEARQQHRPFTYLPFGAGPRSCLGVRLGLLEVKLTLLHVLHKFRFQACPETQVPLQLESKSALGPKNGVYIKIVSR

With `O=C(O)CC/C=C\C[C@@H]1CO[C@H](c2ccccc2Cl)O[C@@H]1c1cccnc1` (relative stereo) [Example 2, 4(Z)-6-[(2,4,5-cis)-2-(2-chlorophenyl)-4-(3-pyridyl)-1,3-dioxan-5-yl]hexenoic acid] the Kb (thromboxane receptor) was 650 nM, the “inhibition of TXB2 production” value (TXA2 synthase [1]) was “essentially complete inhibition of TXB2 production” and the “observable signs of toxicity” value [2] was “without any observable signs of toxicity”. For the same molecule, the IC50 (TXA2 synthase [3]) was 48 nM.
